Holding throughout (format): cell-based
In test [1] the target is KDR (phospho-KDR, VEGF165-stimulated HUVEC cells) (Homo sapiens (Human), UniProt P35968). As to the kind of experiment: KDR autophosphorylation ELISA in HUVEC cells (Example G). As to conditions: cellular activity; KDR autophosphorylation ELISA in HUVEC cells. Summed up: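 IC50 values derive from nonlinear curve fitting of phospho-KDR levels measured by ELISA and interpolated from a phosphoprotein standard. Beforehand, starved HUVECs received compound (0.3% DMSO vehicle) for one hour and were activated with VEGF165 at 100 ng/mL for 5 min.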
A general note: ELISA stands for enzyme-linked immunosorbent assay.

Test [2] addresses Mer (phospho-Mer, MERTK-transfected 293A cells) (Homo sapiens (Human), UniProt Q12866). As to the kind of experiment: Mer autophosphorylation ELISA in transient transfected 293A cells (Example H). As to conditions: cellular activity; Mer autophosphorylation ELISA in transient transfected 293A cells. The method, boiled down:
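293A cells transiently transfected with human MERTK were treated 1 h in serum-free medium with an 8-point compound dilution (0.3% DMSO final). Lysates were assayed by phospho-Mer sandwich ELISA against a phospho-Mer standard; IC50 came from a 4-parameter logistic fit, normalised to DMSO (100%) and reference-inhibitor (0%) controls.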

The target of test [3] is AXL (phospho-AXL, Gas6-stimulated A-172 glioblastoma cells) (Homo sapiens (Human), UniProt P30530). As to the kind of experiment: AXL autophosphorylation ELISA in A-172 cells (Example E). The method, boiled down: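 Phospho-AXL in lysates was quantified by ELISA, normalised to DMSO (100%) and reference inhibitor (0%) controls. IC50 by 4-parameter logistic fit.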
Test [4] addresses Met (phospho-Met, HGF-stimulated PC-3 prostate cancer cells) (Homo sapiens (Human), UniProt P08581). As to the kind of experiment: Met autophosphorylation ELISA in PC-3 cells (Example F). Particulars: cellular activity; Met autophosphorylation ELISA in PC-3 cells; read-out: c-Met IC50. The method, boiled down:
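PC-3 cells, serum-starved 3 h, were treated with compounds (8-point dose curve, 0.3% DMSO final) for 1 h, then stimulated with 100 ng/mL recombinant human HGF for 10 min. Lysate phospho-Met (panTyr) was quantified by sandwich ELISA; IC50 from 4-parameter logistic fit.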

The mark [5] stands for this setting: cellular activity, AXL autophosphorylation ELISA in A-172 cells, read-out: Axl IC50.

This note sets out measurements from patent US12371428B2 (Exelixis, Inc., priority 2019, dated 2025).

Where two headings read alike, the source gives them in different places. Bounds are passed on as bounds.

Chain of KDR (phospho-KDR, VEGF165-stimulated HUVEC cells) (P35968 20-1356): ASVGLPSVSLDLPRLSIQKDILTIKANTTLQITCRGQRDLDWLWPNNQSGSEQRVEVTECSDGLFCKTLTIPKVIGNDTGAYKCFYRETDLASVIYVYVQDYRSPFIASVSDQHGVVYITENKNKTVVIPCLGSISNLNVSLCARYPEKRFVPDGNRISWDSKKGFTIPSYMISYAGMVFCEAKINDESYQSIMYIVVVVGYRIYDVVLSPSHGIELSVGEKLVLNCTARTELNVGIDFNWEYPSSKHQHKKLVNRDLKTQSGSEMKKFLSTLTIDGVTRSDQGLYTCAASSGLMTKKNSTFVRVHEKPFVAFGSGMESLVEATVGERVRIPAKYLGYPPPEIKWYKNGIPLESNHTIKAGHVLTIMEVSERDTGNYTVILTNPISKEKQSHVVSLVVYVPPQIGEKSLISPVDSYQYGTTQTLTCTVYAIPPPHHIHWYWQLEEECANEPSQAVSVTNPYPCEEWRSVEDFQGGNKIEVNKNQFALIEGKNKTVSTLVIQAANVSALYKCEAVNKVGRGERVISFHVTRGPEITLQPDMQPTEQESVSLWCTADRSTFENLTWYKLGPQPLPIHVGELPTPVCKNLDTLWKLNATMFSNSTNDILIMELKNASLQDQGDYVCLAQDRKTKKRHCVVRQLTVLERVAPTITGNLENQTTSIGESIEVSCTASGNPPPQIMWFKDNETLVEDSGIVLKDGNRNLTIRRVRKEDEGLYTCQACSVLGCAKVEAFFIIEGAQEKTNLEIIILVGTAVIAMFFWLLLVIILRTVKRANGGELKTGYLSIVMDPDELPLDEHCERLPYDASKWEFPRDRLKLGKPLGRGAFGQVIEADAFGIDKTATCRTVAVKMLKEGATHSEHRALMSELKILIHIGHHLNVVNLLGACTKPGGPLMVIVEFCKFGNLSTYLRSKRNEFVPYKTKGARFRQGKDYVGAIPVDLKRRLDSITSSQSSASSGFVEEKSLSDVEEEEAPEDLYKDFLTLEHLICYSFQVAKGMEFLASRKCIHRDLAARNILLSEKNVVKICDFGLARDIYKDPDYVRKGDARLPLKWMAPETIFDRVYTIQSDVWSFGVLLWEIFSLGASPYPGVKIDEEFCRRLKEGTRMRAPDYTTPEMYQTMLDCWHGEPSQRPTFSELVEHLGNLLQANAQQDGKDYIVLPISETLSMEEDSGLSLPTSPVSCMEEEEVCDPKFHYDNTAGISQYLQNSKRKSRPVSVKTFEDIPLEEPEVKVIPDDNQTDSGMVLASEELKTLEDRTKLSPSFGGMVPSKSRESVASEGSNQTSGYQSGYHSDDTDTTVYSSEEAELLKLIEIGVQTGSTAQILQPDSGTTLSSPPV
Chain of Met (phospho-Met, HGF-stimulated PC-3 prostate cancer cells) (P08581 25-1390): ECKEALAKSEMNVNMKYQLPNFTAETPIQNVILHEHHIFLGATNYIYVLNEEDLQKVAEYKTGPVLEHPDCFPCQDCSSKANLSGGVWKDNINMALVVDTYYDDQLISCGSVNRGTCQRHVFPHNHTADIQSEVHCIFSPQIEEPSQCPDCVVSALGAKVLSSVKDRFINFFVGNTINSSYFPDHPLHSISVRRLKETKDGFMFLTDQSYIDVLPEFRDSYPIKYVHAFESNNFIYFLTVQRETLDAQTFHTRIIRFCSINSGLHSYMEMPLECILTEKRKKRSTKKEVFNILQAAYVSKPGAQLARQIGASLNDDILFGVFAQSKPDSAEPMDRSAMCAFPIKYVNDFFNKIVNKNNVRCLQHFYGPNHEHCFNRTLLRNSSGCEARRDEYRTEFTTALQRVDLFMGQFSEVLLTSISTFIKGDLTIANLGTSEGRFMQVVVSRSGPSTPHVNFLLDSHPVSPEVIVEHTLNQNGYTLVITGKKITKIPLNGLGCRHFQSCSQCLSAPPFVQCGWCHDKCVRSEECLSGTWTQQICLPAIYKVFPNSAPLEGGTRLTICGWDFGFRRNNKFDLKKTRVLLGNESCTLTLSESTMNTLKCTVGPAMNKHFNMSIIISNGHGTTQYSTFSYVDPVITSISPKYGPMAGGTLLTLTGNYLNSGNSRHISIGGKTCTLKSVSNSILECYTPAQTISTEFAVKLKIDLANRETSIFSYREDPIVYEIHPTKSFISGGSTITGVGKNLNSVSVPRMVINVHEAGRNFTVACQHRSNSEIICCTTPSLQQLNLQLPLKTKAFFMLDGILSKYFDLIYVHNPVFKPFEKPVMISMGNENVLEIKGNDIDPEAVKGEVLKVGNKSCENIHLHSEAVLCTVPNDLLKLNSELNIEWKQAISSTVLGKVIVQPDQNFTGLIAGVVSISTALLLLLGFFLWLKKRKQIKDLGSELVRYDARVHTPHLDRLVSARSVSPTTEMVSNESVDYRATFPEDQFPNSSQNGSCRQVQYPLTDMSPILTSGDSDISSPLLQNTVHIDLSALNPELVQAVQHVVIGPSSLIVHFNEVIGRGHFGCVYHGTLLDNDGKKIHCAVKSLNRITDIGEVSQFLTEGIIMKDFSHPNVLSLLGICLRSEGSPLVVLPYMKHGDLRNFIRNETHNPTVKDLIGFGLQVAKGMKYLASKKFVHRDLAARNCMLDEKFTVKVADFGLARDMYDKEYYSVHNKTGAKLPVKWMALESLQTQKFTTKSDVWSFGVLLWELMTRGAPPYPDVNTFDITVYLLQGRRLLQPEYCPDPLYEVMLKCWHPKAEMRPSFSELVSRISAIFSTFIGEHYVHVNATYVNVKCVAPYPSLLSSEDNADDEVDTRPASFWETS
Chain of AXL (phospho-AXL, Gas6-stimulated A-172 glioblastoma cells) (P30530 26-894): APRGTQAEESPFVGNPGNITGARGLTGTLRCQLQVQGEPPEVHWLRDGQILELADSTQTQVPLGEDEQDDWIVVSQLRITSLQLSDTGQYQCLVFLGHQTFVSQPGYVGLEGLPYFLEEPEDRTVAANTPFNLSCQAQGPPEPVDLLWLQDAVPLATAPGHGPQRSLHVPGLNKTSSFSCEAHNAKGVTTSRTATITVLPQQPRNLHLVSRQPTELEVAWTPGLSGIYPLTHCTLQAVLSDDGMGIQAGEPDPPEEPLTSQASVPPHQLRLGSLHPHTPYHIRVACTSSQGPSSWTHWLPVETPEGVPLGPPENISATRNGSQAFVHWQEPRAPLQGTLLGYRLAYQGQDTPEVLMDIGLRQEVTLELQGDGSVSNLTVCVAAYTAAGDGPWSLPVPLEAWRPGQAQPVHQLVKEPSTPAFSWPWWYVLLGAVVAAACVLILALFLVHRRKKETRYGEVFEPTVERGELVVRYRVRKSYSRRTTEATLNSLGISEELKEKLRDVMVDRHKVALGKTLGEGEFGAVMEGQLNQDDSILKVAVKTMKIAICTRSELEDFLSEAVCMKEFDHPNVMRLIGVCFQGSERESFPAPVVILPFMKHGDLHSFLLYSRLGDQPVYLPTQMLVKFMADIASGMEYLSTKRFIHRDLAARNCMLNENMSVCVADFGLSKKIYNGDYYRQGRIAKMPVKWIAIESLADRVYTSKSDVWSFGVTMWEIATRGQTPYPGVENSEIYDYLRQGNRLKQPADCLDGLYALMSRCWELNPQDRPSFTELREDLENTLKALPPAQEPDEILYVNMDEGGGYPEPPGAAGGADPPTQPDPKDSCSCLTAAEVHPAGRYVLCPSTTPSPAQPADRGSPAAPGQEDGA
Chain of Mer (phospho-Mer, MERTK-transfected 293A cells) (Q12866 21-999): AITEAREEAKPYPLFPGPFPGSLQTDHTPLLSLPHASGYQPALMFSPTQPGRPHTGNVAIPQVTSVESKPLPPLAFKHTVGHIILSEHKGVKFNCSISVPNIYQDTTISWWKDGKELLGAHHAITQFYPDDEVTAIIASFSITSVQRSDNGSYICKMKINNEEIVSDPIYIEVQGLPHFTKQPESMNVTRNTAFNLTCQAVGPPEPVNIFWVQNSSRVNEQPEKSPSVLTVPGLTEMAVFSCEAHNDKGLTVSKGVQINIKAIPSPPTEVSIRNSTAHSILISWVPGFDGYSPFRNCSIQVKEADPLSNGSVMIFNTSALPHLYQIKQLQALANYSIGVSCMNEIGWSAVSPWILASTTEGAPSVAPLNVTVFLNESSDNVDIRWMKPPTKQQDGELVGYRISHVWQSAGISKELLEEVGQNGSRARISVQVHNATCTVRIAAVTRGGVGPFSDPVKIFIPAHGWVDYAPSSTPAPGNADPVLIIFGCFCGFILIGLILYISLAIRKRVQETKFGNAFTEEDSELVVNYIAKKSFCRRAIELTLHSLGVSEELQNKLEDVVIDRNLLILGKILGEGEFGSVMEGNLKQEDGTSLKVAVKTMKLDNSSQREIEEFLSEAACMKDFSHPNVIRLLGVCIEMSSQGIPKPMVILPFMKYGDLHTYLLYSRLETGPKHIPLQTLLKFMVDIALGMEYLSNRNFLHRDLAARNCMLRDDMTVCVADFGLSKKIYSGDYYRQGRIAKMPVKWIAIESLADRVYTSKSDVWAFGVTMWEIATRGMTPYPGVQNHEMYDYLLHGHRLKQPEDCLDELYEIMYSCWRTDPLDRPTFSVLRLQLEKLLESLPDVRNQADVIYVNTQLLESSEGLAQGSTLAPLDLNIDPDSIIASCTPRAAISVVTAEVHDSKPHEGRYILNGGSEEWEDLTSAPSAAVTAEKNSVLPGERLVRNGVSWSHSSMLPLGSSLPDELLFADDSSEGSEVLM

Consider `COc1cnc2c(Oc3ccc(NC(=O)c4cnc(C5CC5)c(-c5ccc(F)cc5)c4O)cc3F)ccnc2c1` [Compound 658, 6-cyclopropyl-N-[3-fluoro-4-[(7-methoxy-1,5-naphthyridin-4-yl)oxy]phenyl]-5-(4-fluorophenyl)-4-hydroxypyridine-3-carboxamide], for which the IC50 (as a rule, the concentration needed to halve the response being measured) in test [1] is above 300 nM; in test [2] it was below 100 nM; in test [3] (setting [5]), below 100 nM; in test [4], below 100 nM.
`CCn1cc(-c2ccc(F)cc2)c(=O)c(C(=O)Nc2ccc(Oc3ccnc4cc(OC)c(OC)nc34)cc2)c1C` [Compound 244, N-[4-[(6,7-Dimethoxy-1,5-naphthyridin-4-yl)oxy]phenyl]-1-ethyl-5-(4-fluorophenyl)-2-methyl-4-oxopyridine-3-carboxamide]: the IC50 in test [1] is above 300 nM; in test [2], below 100 nM; in test [3] (setting [5]) it was below 100 nM; in test [4], below 100 nM.
With `COc1cc2nccc(Oc3ccc(NC(=O)c4nnc(C)c(-c5ccc(F)cc5C)c4OC)cc3F)c2nc1OC` [Compound 489, N-[4-[(6,7-dimethoxy-1,5-naphthyridin-4-yl)oxy]-3-fluorophenyl]-5-(4-fluoro-2-methylphenyl)-4-methoxy-6-methylpyridazine-3-carboxamide], the IC50 in test [1], in test [2], in test [3] (setting [5]) and in test [4] was below 100 nM in each case.
Regarding `Cc1cc2nccc(Oc3ccc(NC(=O)c4c(C)nc(C)c(-c5ccc(F)cc5)c4O)cc3F)c2nc1F` [Compound 445, N-[3-fluoro-4-[(6-fluoro-7-methyl-1,5-naphthyridin-4-yl)oxy]phenyl]-5-(4-fluorophenyl)-4-hydroxy-2,6-dimethylpyridine-3-carboxamide], the IC50 in test [1], in test [2], in test [3] (setting [5]) and in test [4] was below 100 nM in each case.
Take `COc1cc2nccc(Oc3ccc(NC(=O)c4nn(C(F)F)c(C)c(-c5ccc(F)cc5)c4=O)cc3F)c2nc1OC` [Compound 721, 1-(difluoromethyl)-N-[4-[(6,7-dimethoxy-1,5-naphthyridin-4-yl)oxy]-3-fluorophenyl]-5-(4-fluorophenyl)-6-methyl-4-oxopyridazine-3-carboxamide]: the IC50 in test [1] is 100 to 300 nM; in test [2], below 100 nM; in test [3] (setting [5]), below 100 nM; in test [4], below 100 nM.
Regarding `COc1cnc2c(Oc3ccc(NC(=O)c4cn5c(c(-c6ccc(F)cc6)c4=O)COCC5)cc3F)ccnc2c1` [Compound 661, N-[3-fluoro-4-[(7-methoxy-1,5-naphthyridin-4-yl)oxy]phenyl]-9-(4-fluorophenyl)-8-oxo-3,4-dihydro-1H-pyrido[2,1-c][1,4]oxazine-7-carboxamide], the IC50 in test [1] was above 300 nM; in test [2], below 100 nM; in test [3] (setting [5]), below 100 nM; in test [4], below 100 nM.
Turning to `COc1cc2nccc(Oc3ccc(NC(=O)c4c(C)c(C(C)=O)c(C)n(-c5ccc(F)cc5)c4=O)cc3F)c2nc1OC` [Compound 321, 5-Acetyl-N-[4-[(6,7-dimethoxy-1,5-naphthyridin-4-yl)oxy]-3-fluorophenyl]-1-(4-fluorophenyl)-4,6-dimethyl-2-oxopyridine-3-carboxamide], the IC50 in test [1] was 100 to 300 nM; in test [2], below 100 nM; in test [3] it was below 100 nM; in test [4] it was below 100 nM.
On to `COc1cc2nccc(Oc3ccc(NC(=O)c4cn(C)c(C5CC5)c(-c5ccc(F)cc5)c4=O)cc3F)c2nc1OC` [Compound 728, 6-cyclopropyl-N-[4-[(6,7-dimethoxy-1,5-naphthyridin-4-yl)oxy]-3-fluorophenyl]-5-(4-fluorophenyl)-1-methyl-4-oxopyridine-3-carboxamide], for which the IC50 is 100 to 300 nM in test [1], below 100 nM in test [2], below 100 nM in test [3] (setting [5]) and below 100 nM in test [4].
For `COCc1nc(C)c(-c2ccc(F)cc2)c(O)c1C(=O)Nc1ccc(Oc2ccnc3cc(C)c(F)nc23)c(F)c1` [Compound 446, N-[3-fluoro-4-[(6-fluoro-7-methyl-1,5-naphthyridin-4-yl)oxy]phenyl]-5-(4-fluorophenyl)-4-hydroxy-2-(methoxymethyl)-6-methylpyridine-3-carboxamide], the IC50 in test [1], in test [2], in test [3] (setting [5]) and in test [4] was below 100 nM in each case.
Consider `CNC(=O)c1cc2nccc(Oc3cc(F)c(NC(=O)c4ccc(C)n(-c5ccc(F)cc5)c4=O)cc3F)c2cc1C` [Compound 726, 4-[2,5-difluoro-4-[[1-(4-fluorophenyl)-6-methyl-2-oxopyridine-3-carbonyl]amino]phenoxy]-N,6-dimethylquinoline-7-carboxamide], for which the IC50 in test [1], in test [2], in test [3] (setting [5]) and in test [4] was below 100 nM throughout.
With `COc1cc2nccc(Oc3ccc(NC(=O)c4c(C)[nH]nc(-c5ccc(F)cc5)c4=O)cc3F)c2nc1OC` [Compound 653, N-[4-[(6,7-dimethoxy-1,5-naphthyridin-4-yl)oxy]-3-fluorophenyl]-3-(4-fluorophenyl)-6-methyl-4-oxo-1H-pyridazine-5-carboxamide], the half-inhibitory concentration (IC50) in test [1], in test [2], in test [3] (setting [5]) and in test [4] was below 100 nM throughout.
Turning to `COc1cnc2c(Oc3ccc(NC(=O)c4cn(CC(F)F)c(C)c(-c5ccc(F)cc5C)c4=O)cc3F)ccnc2c1` [Compound 723, 1-(2,2-difluoroethyl)-N-[3-fluoro-4-[(7-methoxy-1,5-naphthyridin-4-yl)oxy]phenyl]-5-(4-fluoro-2-methylphenyl)-6-methyl-4-oxopyridine-3-carboxamide], the IC50 in test [1] is above 300 nM; in test [2], below 100 nM; in test [3] (setting [5]), below 100 nM; in test [4] it was below 100 nM.
Regarding `COc1cc2nccc(Oc3ccc(NC(=O)c4cc(C(C)=O)c(C)n(-c5ccc(F)cc5)c4=O)cc3)c2nc1OC` [Compound 659, 5-acetyl-N-[4-[(6,7-dimethoxy-1,5-naphthyridin-4-yl)oxy]phenyl]-1-(4-fluorophenyl)-6-methyl-2-oxopyridine-3-carboxamide], the IC50 in test [1] is above 300 nM; in test [2], below 100 nM; in test [3] (setting [5]), below 100 nM; in test [4], below 100 nM.
As for `COc1nc2c(Oc3ccc(NC(=O)c4n[nH]c(C)c(-c5ccc(F)cc5C)c4=O)cc3F)ccnc2cc1C` [Compound 473, N-[3-fluoro-4-[(6-methoxy-7-methyl-1,5-naphthyridin-4-yl)oxy]phenyl]-5-(4-fluoro-2-methylphenyl)-6-methyl-4-oxo-1H-pyridazine-3-carboxamide], the IC50 in test [1] was above 300 nM; in test [2], below 100 nM; in test [3] (setting [5]), below 100 nM; in test [4], above 300 nM.
With `C=C(C)c1cnc2c(Oc3ccc(NC(=O)c4c(C)nc(C)c(-c5ccc(F)cc5C)c4O)cc3F)ccnc2c1` [Compound 461, 5-(4-fluoro-2-methylphenyl)-N-[3-fluoro-4-[(7-prop-1-en-2-yl-1,5-naphthyridin-4-yl)oxy]phenyl]-4-hydroxy-2,6-dimethylpyridine-3-carboxamide], the IC50 in test [1], in test [2], in test [3] (setting [5]) and in test [4] was below 100 nM throughout.
For `COc1cnc2c(Oc3ccc(NC(=O)c4c(C)ncc(-c5ccc(F)cc5OC)c4O)cc3F)ccnc2c1` [Compound 793, N-[3-fluoro-4-[(7-methoxy-1,5-naphthyridin-4-yl)oxy]phenyl]-5-(4-fluoro-2-methoxyphenyl)-4-hydroxy-2-methylpyridine-3-carboxamide], the IC50 in test [1], in test [2], in test [3] (setting [5]) and in test [4] was below 100 nM throughout.
On to `COc1cc2nccc(Oc3ccc(NC(=O)c4nnc(C)c(-c5ccc(F)cc5)c4OC)cc3)c2nc1OC` [Compound 534, N-[4-[(6,7-dimethoxy-1,5-naphthyridin-4-yl)oxy]phenyl]-5-(4-fluorophenyl)-4-methoxy-6-methylpyridazine-3-carboxamide], for which the half-maximal inhibitory concentration (IC50) in test [1], in test [2], in test [3] (setting [5]) and in test [4] was below 100 nM in each case.
As for `COc1cc(NC(=O)c2cn(C)c(C)c(-c3ccc(F)cc3)c2=O)ccc1Oc1ccnc2cc(OC)c(OC)nc12` [Compound 762, N-[4-[(6,7-dimethoxy-1,5-naphthyridin-4-yl)oxy]-3-methoxyphenyl]-5-(4-fluorophenyl)-1,6-dimethyl-4-oxopyridine-3-carboxamide], the IC50 in test [1], in test [2], in test [3] (setting [5]) and in test [4] was below 100 nM throughout.
